Data: ChEMBL document CHEMBL1201862, “PubChem BioAssay data set” (2004)
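These data come from cells grown in 96-well plates and exposed to compound for 48 hours at five concentrations. GI50 is the concentration that inhibits growth by half.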 Calls of active or inactive are those of the source. Cut-off read from the data, not from the text of the source: active = GI50 up to about 1.1 µM and inactive = higher.

Key:
Experiment in all cases: NCI anticancer screen, dose series, 48 h
SK-MEL-2 = tested on: SK-MEL-2
SK-MEL-28 = tested on: SK-MEL-28
HOP-92 = tested on: HOP-92
Hs-578T = tested on: Hs-578T
SK-MEL-5 = tested on: SK-MEL-5
NCI/ADR-RES = tested on: NCI/ADR-RES
IGROV-1 = tested on: IGROV-1
SF-295 = tested on: SF-295
786-0 = tested on: 786-0
MDA-MB-231 = tested on: MDA-MB-231
HCT-116 = tested on: HCT-116
NCI-H460 = tested on: NCI-H460
SN12C = tested on: SN12C
HOP-62 = tested on: HOP-62
PC-3 = tested on: PC-3
CCRF-CEM = tested on: CCRF-CEM
OVCAR-3 = tested on: OVCAR-3
Malme-3M = tested on: Malme-3M

Measured: GI50

C(CCc1nnc2c(n1)CCCC2)Cc1nnc2c(n1)CCCC2
inactive: SK-MEL-2 > 100 µM | SK-MEL-28 > 100 µM | HOP-92 > 100 µM | Hs-578T > 100 µM | SK-MEL-5 > 100 µM | NCI/ADR-RES > 100 µM | IGROV-1 > 100 µM | SF-295 > 100 µM | 786-0 > 100 µM | MDA-MB-231 > 100 µM | HCT-116 > 100 µM | NCI-H460 > 100 µM | SN12C > 100 µM | HOP-62 > 100 µM | PC-3 85.7 µM | CCRF-CEM > 100 µM | OVCAR-3 > 100 µM | Malme-3M > 100 µM

CC1=CC[C@H](C[C@H](C#CCCCC2OCCO2)O[Si](C(C)C)(C(C)C)C(C)C)C(=O)CC1
inactive: SK-MEL-2 > 100 µM | SK-MEL-28 > 100 µM | HOP-92 > 100 µM | Hs-578T > 100 µM | SK-MEL-5 > 100 µM | NCI/ADR-RES > 100 µM | IGROV-1 > 100 µM | SF-295 > 100 µM | 786-0 > 100 µM | MDA-MB-231 > 100 µM | HCT-116 > 100 µM | NCI-H460 > 100 µM | SN12C > 100 µM | HOP-62 > 100 µM | PC-3 > 100 µM | CCRF-CEM > 100 µM | OVCAR-3 > 100 µM | Malme-3M > 100 µM

C(=C\c1nccs1)/c1cccc(/C=C/c2nccs2)n1
inactive: SK-MEL-2 > 50 µM | SK-MEL-28 > 50 µM | HOP-92 > 50 µM | Hs-578T > 50 µM | SK-MEL-5 > 50 µM | NCI/ADR-RES > 50 µM | IGROV-1 26.5 µM | SF-295 > 50 µM | 786-0 > 50 µM | MDA-MB-231 > 50 µM | HCT-116 > 50 µM | NCI-H460 > 50 µM | SN12C > 50 µM | HOP-62 > 50 µM | PC-3 > 50 µM | CCRF-CEM > 50 µM | OVCAR-3 > 50 µM | Malme-3M > 50 µM

CCOC(=O)c1cc(Sc2ccc(N)c(C(=O)OCC)c2)ccc1N
inactive: SK-MEL-2 > 100 µM | SK-MEL-28 > 100 µM | HOP-92 58.2 µM | Hs-578T 21.5 µM | SK-MEL-5 > 100 µM | NCI/ADR-RES 5.25 µM | IGROV-1 18.6 µM | SF-295 3.3 µM | 786-0 26.4 µM | MDA-MB-231 14.4 µM | HCT-116 > 100 µM | NCI-H460 78.2 µM | SN12C 18 µM | HOP-62 14.8 µM | PC-3 11.4 µM | CCRF-CEM 28 µM | OVCAR-3 24.8 µM | Malme-3M 11.6 µM
